Measurements reported in publication PMC8424217 (The Journal of Biological Chemistry, 2021).
Peptide text beside a SMILES is read from it. * marks the point of attachment. Palmitoyl = CCCCCCCCCCCCCCCC(=O)*

Experiments:
[1] = tested on: HEK 293 cells
Description: Pepducins are composed of a synthetic peptide, mimicking an intracellular GPCR loop, to which a hydrophobic moiety, most commonly the fully saturated C16 fatty acid palmitate, is conjugated at their N-termini ([39]). […] The second pepducin ([Trp^1, Leu^2]hUT-Pep3) comprises the hUT ICL3 sequence; however, the first two N-terminal amino acids were replaced by the corresponding residues from rat UT ICL3 (-Arg-Arg-in hUT and -Trp-Leu- in rUT).
Toxicity of hUT-derived pepducins was evaluated using (A) MTT or (B) LDH assays in HEK 293-hUT cells.
HEK 293 cells were seeded at a density of 2 × 10^4 cells/well in 96 well-plates and cultured at 37 °C for 24 h. Cells were then incubated in serum-free media with hUT-derived pepducins at various concentrations (10^−8 M–10^−4 M). Viability was assessed with an MTS kit (CellTiter 96 AQueous, Promega) and a microplate reader (MTX^TC Revelation, Dynex Tech) in order to determine the optical density related to the conversion of MTS into purple-colored water-soluble formazan. Positive control (cells treated with 10% DMSO) and negative control (nontreated cells) were included in each experiment. Results were expressed as the percentage of control (nontreated cells). The presence of lactate dehydrogenase (LDH), released in the culture medium from dead cells, was also determined using a commercial LDH kit (BioVision). Positive control (cells treated with lysis buffer) and negative control (nontreated cells) were included in each experiment. Results were expressed as the percentage of the maximum LDH release following cell lysis.

[2] = tested on: CHO-K1 cells; test: IP1 production, IP-One terbium immunoassay, untransfected CHO-K1 cells; assay type: cell-based; conditions: CHO-K1, 40 min incubation
Description: This assay, performed with the IP-One terbium immunoassay kits from Cisbio, was used according to the manufacturer recommendation and as previously described ([43]). Briefly, CHO-hUT cells were grown in 10-cm dishes for 24 h. The cells were then starved without serum. The next day, cells were washed once with PBS and collected in PBS containing 20 mM EDTA. For the assay, 80,000 cells per well (96-well plate) were used. […] IP1-d2 and anti-IP1-cryptate were added for an additional 2 h at room temperature. Plates were read on a Flexstation 3 microplate reader.
[Trp1, Leu2]hUT-Pep3. IP1 production was evaluated using the IP-One terbium immunoassay
kitsinCHO-K1 cells.Each histogram represents the mean ± SEM of atleast threeindependent
experiments performed in triplicate.
(also on this page, place not known: (% Maximal Response) FigureS3.IP1productioninCHO-K1cellsfollowingtreatmentbyhUII,hUT-Pep2or [Trp1,Leu2]hUT-Pep3.IP1productionwasevaluatedusingtheIP-Oneterbiumimmunoassay kitsinCHO-K1cells.Eachhistogramrepresentsthemean±SEMofatleastthreeindependent experimentsperformedintriplicate.)

[3] = tested on: HEK 293 cells; test: Cell proliferation, MTT assay, HEK 293 cells without receptor; assay type: cell-based; conditions: 10^−6 M
Excerpt: Each bar corresponds to the mean ± SEM obtained from three independent experiments conducted in triplicate.

[4] = biological target: T1, rat thoracic aorta rings (Rattus norvegicus, UniProt P49684); test: Modulation of URP-mediated rat aortic ring contraction; conditions: pepducin 10^−6 M 30 min prior to URP, percentage of KCl (40 mM) contraction divided by tissue response to URP (10^−6 M), mean ± SEM, n = 5, read-out: URP Emax after pepducin pretreatment
T1 sequence (P49684 1-386): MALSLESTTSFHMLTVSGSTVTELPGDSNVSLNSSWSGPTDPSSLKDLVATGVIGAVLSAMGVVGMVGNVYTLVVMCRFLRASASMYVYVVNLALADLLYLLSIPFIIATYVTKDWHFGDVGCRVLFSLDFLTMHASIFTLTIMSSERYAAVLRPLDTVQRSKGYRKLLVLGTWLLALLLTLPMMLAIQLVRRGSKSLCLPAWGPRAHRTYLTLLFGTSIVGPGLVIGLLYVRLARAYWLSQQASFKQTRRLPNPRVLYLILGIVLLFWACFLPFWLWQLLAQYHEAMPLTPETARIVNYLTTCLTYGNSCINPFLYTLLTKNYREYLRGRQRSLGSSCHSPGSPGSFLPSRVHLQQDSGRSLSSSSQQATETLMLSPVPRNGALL
Description: Each replicate (n) was conducted on tissue obtained from at least three different animals. Data represent mean ± SEM.
Adult male Sprague-Dawley rats (Charles-River) weighing 250–300 g were housed in cages under controlled illumination (12:12 h light–dark cycle), humidity, and temperature (21–23 °C) and had free access to tap water and rat chow. All experimental procedures were performed in accordance with regulations and ethical guidelines from the Canadian Council for the Care of Laboratory Animals and received approvals of the institutional animal care and use committee of the Institut National de la Recherche Scientifique—Centre Armand-Frappier Santé Biotechnologie. As previously described ([17], [18]), the thoracic aorta was cleared of surrounding tissue and then excised from the aortic arch to the diaphragm. Conjunctive tissues were next removed from the thoracic aorta and the vessels were divided into five rings of 4 mm. The endothelium of each aortic ring was removed by gently rubbing the vessel intimal surface. Aortic rings were then placed in a 5 ml organ bath filled with oxygenated normal Krebs–Henseleit buffer. Eighty microliters of a 2.5 M potassium chloride solution (40 mM final concentration) was used to evaluate maximal contractile responses of each vessel. […] Cumulative concentration–response curves to synthetic peptides were obtained by increasing the concentration of each peptide in the remaining organ chambers (10^−11–10^−5 M).

Structure (SMILES) | effect on cell viability at 10^−4 M [1] | effect on cell viability up to 10^−5 M [1] | IP1 production in untransfected CHO-K1 cells [2] | HEK 293 cell proliferation in absence of receptor [3] | Emax [4] [%]
CCCCCCCCCCCCCCCC(=O)N[C@@H](Cc1c[nH]c2ccccc12)C(=O)N[C@@H](CC(C)C)C(=O)N[C@@H](CO)C(=O)N[C@@H](CCC(N)=O)C(=O)N[C@@H](CCCNC(=N)N)C(=O)N[C@@H](C)C(=O)N[C@@H](CO)C(=O)N[C@@H](Cc1ccccc1)C(=O)N[C@@H](CCCCN)C(=O)N[C@@H](CCCNC(=N)N)C(=O)N[C@@H](C)C(=O)N[C@@H](CCCNC(=N)N)C(=O)N[C@@H](CCCNC(=N)N)C(N)=O [[Trp^1, Leu^2]hUT-Pep3] (Palmitoyl-WLSQRASFKRARR-NH2) | as cytotoxic as unmodified hUT-Pep3 at 10^−7 M | did not significantly affect HEK 293 cell viability | not untransfected CHO-K1 cells | completely abrogated | 16 ± 2
CC(C)[C@H](NC(=O)[C@@H]1CSSC[C@H](NC(=O)[C@H](CC(=O)O)NC(=O)[C@@H]2CCCN2C(=O)[C@@H](NC(=O)[C@@H](N)CCC(=O)O)[C@@H](C)O)C(=O)N[C@@H](Cc2ccccc2)C(=O)N[C@@H](Cc2c[nH]c3ccccc23)C(=O)N[C@@H](CCCCN)C(=O)N[C@@H](Cc2ccc(O)cc2)C(=O)N1)C(=O)O [hUII, urotensin II, reference compound] |  |  |  | completely abrogated | 
CCCCCCCCCCCCCCCC(=O)N[C@@H](CCCNC(=N)N)C(=O)N1CCC[C@H]1C(=O)N[C@@H](CC(C)C)C(=O)N[C@@H](CC(=O)O)C(=O)N[C@H](C(=O)N[C@H](C(=O)N[C@@H](CCC(N)=O)C(=O)N[C@@H](CCCNC(=N)N)C(=O)N1CCC[C@H]1C(=O)N[C@@H](CCCCN)C(=O)NCC(=O)N[C@@H](Cc1ccc(O)cc1)C(N)=O)C(C)C)[C@@H](C)O [hUT-Pep2] (Palmitoyl-RPLDTVQRPKGY-NH2) | as cytotoxic as unmodified hUT-Pep3 at 10^−7 M | did not significantly affect HEK 293 cell viability | not untransfected CHO-K1 cells |  | 76 ± 8
